Here are results for 45 compounds from BindingDB's records for doi:10.1021/cc1000049 (Chemical Diversity Research Institute, 2010).

In the test the target is 5-hydroxytryptamine receptor 6 (Homo sapiens, UniProt P50406). Briefly: Radioligand Binding Assay. The source says: Radioligand binding assay using 5-HT6R.

Several values for one entry are separate records, joined by “and”; a condition that tells them apart may be missing. Equal entries are not always repeated.

Chain of 5-hydroxytryptamine receptor 6 (P50406 whole entry): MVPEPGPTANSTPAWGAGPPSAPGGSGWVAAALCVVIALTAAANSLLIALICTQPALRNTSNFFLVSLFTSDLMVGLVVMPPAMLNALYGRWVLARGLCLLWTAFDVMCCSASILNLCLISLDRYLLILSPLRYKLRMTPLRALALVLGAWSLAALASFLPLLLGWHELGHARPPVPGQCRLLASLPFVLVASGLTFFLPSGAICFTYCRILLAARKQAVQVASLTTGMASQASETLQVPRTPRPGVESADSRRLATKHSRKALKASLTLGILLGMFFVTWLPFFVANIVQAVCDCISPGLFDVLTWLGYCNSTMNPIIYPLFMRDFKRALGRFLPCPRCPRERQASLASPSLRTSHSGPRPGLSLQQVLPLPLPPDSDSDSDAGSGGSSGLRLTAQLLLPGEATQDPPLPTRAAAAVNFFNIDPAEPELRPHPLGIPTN

For `CCN(Cc1ccccc1)c1nc2c(S(=O)(=O)c3ccccc3)nnn2c2ccccc12` [PSTQ Analog, 3{1,44}], the IC50 – broadly, the midpoint of a concentration-inhibition curve – worked out at 164 nM.
Regarding `CC1CCCCC1Nc1nc2c(S(=O)(=O)c3ccccc3)nnn2c2ccccc12` (stereo not drawn) [PSTQ Analog, 3{1,27}], the IC50 is 6.17 nM and the Ki (in general, a measure of affinity in units of concentration, obtained from inhibition or displacement) was 2.86 nM.
On to `Cc1ccc(S(=O)(=O)c2nnn3c2nc(N2CCN(c4ccccn4)CC2)c2ccccc23)cc1C` [PSTQ Analog, 3{9,58}], for which the IC50 worked out at 1200 nM.
`O=S(=O)(c1ccccc1)c1nnn2c1nc(NC1CCCCC1)c1ccccc12` [PSTQ Analog, 3{1,26}]: the IC50 came out at 10.8 nM and the Ki came to 5.01 nM.
With `CC(C)Nc1nc2c(S(=O)(=O)c3ccccc3)nnn2c2ccccc12` [PSTQ Analog, 3{1,3}], the IC50 was 107 nM and the Ki was determined as 49.5 nM.
Compound `CCc1ccccc1Nc1nc2c(S(=O)(=O)c3cc(C)ccc3C)nnn2c2ccccc12` [PSTQ Analog, 3{8,31}] registered an IC50 of 770 nM. In other words, the sub-micromolar range.
In turn, `CCC(C)Nc1nc2c(S(=O)(=O)c3cc(C)ccc3C)nnn2c2ccccc12` (stereo not drawn) [PSTQ Analog, 3{8,4}] showed an IC50 of 35.9 nM and a Ki of 16.7 nM.
The compound `CN(Cc1ccccc1)c1nc2c(S(=O)(=O)c3ccccc3)nnn2c2ccccc12` [PSTQ Analog, 3{1,43}] gave a Ki of 7.65 nM. This counts as single-digit nanomolar.
The compound `CCSc1nc2c(S(=O)(=O)c3ccccc3)nnn2c2ccccc12` [PSTQ Analog, 9] displayed an IC50 of 1050 nM.
For the compound `CC1CCC(Nc2nc3c(S(=O)(=O)c4ccccc4)nnn3c3ccccc23)CC1` (stereo not drawn) [PSTQ Analog, 3{1,28}], the IC50 was determined as 59.5 nM and the Ki is 27.6 nM.
`Cc1cccc(Nc2nc3c(S(=O)(=O)c4c(C)cc(C)cc4C)nnn3c3ccccc23)c1` [PSTQ Analog, 3{10,32}]: the IC50 was determined as 1000 nM.
Still for that read-out and setting: the same measure for `COCCOc1nc2c(S(=O)(=O)c3ccccc3)nnn2c2ccccc12` [PSTQ Analog, 10]: 1370 nM.
With `O=S(=O)(c1ccccc1)c1nnn2c1nc(NCC1CCCO1)c1ccccc12` (stereo not drawn) [PSTQ Analog, 3{1,21}], the IC50 was 75.4 nM and 28.4 nM; the Ki was 13.2 nM.
Consider `O=S(=O)(c1ccccc1)c1nnn2c1nc(NCc1ccccc1)c1ccccc12` [PSTQ Analog, 3{1,12}], for which the IC50 stood at 381 nM.
As to `Cc1ccc(S(=O)(=O)c2nnn3c2nc(NCC2CCCO2)c2ccccc23)cc1C` (stereo not drawn) [PSTQ Analog, 3{9,21}], the IC50 came to 779 nM.
With `Cc1ccc(S(=O)(=O)c2nnn3c2nc(NCC(C)c2ccccc2)c2ccccc23)cc1` (stereo not drawn) [PSTQ Analog, 3{2,10}], the IC50 was found to be 606 nM.
For the compound `Cc1ccc(S(=O)(=O)c2nnn3c2nc(N2CCCCCC2)c2ccccc23)cc1C` [PSTQ Analog, 3{9,53}], the IC50 stood at 1310 nM.
`O=S(=O)(c1ccccc1)c1nnn2c1nc(NCc1ccccc1Cl)c1ccccc12` [PSTQ Analog, 3{1,13}] gave an IC50 of 128 nM.
For `CN(C)c1nc2c(S(=O)(=O)c3ccccc3)nnn2c2ccccc12` [PSTQ Analog, 3{1,40}], the IC50 was > 30 nM.
Same read-out and setting: the result for `CCC(C)Nc1nc2c(S(=O)(=O)c3c(C)cc(C)cc3C)nnn2c2ccccc12` (stereo not drawn) [PSTQ Analog, 3{10,4}] reads 964 nM.
Still for that read-out and setting: the result for `O=S(=O)(c1ccccc1)c1nnn2c1nc(NCC1CCCO1)c1cc(Cl)ccc12` (stereo not drawn) [PSTQ Analog, 3{12,21}] reads 1800 nM; that for `CCc1ccccc1Nc1nc2c(S(=O)(=O)c3ccc(C)c(C)c3)nnn2c2ccccc12` [PSTQ Analog, 3{9,31}], 295 nM.
As for `COc1cccc(Nc2nc3c(S(=O)(=O)c4c(C)cc(C)cc4C)nnn3c3ccccc23)c1` [PSTQ Analog, 3{10,33}], the IC50 came to 670 nM.
Consider `CNc1nc2c(S(=O)(=O)c3ccccc3)nnn2c2ccccc12` [PSTQ Analog, 3{1,2}], for which the IC50 was > 300 nM.
In turn, `CCC(C)Nc1nc2c(S(=O)(=O)c3ccccc3)nnn2c2ccccc12` (stereo not drawn) [PSTQ Analog, 3{1,4}] came in with an IC50 of 15.2 nM and a Ki of 7.04 nM.
The compound `Cc1ccc(S(=O)(=O)c2nnn3c2nc(NCCc2ccccc2)c2ccccc23)cc1C` [PSTQ Analog, 3{9,9}] yielded an IC50 of 2010 nM. This counts as single-digit micromolar.
Regarding `Cc1ccc(S(=O)(=O)c2nnn3c2nc(NCc2ccccc2)c2ccccc23)cc1` [PSTQ Analog, 3{2,12}], the concentration for half-maximal inhibition (IC50) was 320 nM. Compared with the last compound, the IC50 is about 6.3-fold lower.
`CCN(Cc1ccccc1)c1nc2c(S(=O)(=O)c3ccc(C)c(C)c3)nnn2c2ccccc12` [PSTQ Analog, 3{9,44}] had an IC50 of 971 nM.
On the same count and under the same terms, the result for `Cc1cc(C)c(S(=O)(=O)c2nnn3c2nc(NC(C)C)c2ccccc23)c(C)c1` [PSTQ Analog, 3{10,3}] reads 2180 nM; that for `Cc1cccc(Nc2nc3c(S(=O)(=O)c4ccc(Br)cc4)nnn3c3ccccc23)c1C` [PSTQ Analog, 3{7,37}], 704 nM.
On to `Cc1ccc(S(=O)(=O)c2nnn3c2nc(NCc2ccccc2Cl)c2ccccc23)cc1` [PSTQ Analog, 3{2,13}], for which the 50% inhibitory concentration (IC50) is 528 nM.
The same measure, in the same setting: the result for `CC(Nc1nc2c(S(=O)(=O)c3ccc(Cl)cc3)nnn2c2ccccc12)c1ccccc1` (stereo not drawn) [PSTQ Analog, 3{6,20}] reads 628 nM.
For the compound `Cc1ccc(S(=O)(=O)c2nnn3c2nc(NC(C)c2ccccc2)c2ccccc23)cc1C` (stereo not drawn) [PSTQ Analog, 3{9,20}], the IC50 is 356 nM.
For the compound `CC1CCCCN1c1nc2c(S(=O)(=O)c3ccccc3)nnn2c2ccccc12` (stereo not drawn) [PSTQ Analog, 3{1,49}], the IC50 came to 42.1 nM and the affinity corresponds to a Ki of 19.5 nM.
`CCc1ccccc1Nc1nc2c(S(=O)(=O)c3ccc(Br)cc3)nnn2c2ccccc12` [PSTQ Analog, 3{7,31}] gave an IC50 of 1430 nM.
As to `CCc1ccc(S(=O)(=O)c2nnn3c2nc(NC2CCCCC2C)c2ccccc23)cc1` (stereo not drawn) [PSTQ Analog, 3{3,27}], the IC50 was determined as 572 nM.
The compound `O=S(=O)(c1ccccc1)c1nnn2c1ncc1ccccc12` [PSTQ Analog, 8] gave an IC50 of 5740 nM.
In the case of `Cc1cc(C)c(S(=O)(=O)c2nnn3c2nc(NCC2CCCO2)c2ccccc23)c(C)c1` (stereo not drawn) [PSTQ Analog, 3{10,21}], the half-inhibitory concentration (IC50) stood at 1460 nM.
`O=S(=O)(c1ccccc1)c1nnn2c1nc(NCc1ccco1)c1ccccc12` [PSTQ Analog, 3{1,22}] showed a Ki of 3.54 nM.
The compound `Cc1ccc(S(=O)(=O)c2nnn3c2nc(NCC2CCCO2)c2ccccc23)cc1` (stereo not drawn) [PSTQ Analog, 3{2,21}] registered an IC50 of 1480 nM.
Consider `Cc1ccc(S(=O)(=O)c2nnn3c2nc(NC(C)c2ccccc2)c2ccccc23)cc1` (stereo not drawn) [PSTQ Analog, 3{2,20}], for which the half-inhibitory concentration (IC50) worked out at 740 nM.
With `CN(C)CCN(C)c1nc2c(S(=O)(=O)c3ccccc3)nnn2c2ccccc12` [PSTQ Analog, 3{1,42}], the IC50 is > 30 nM.
Take `O=S(=O)(c1ccccc1)c1nnn2c1nc(NC1CCCC1)c1ccccc12` [PSTQ Analog, 3{1,25}]: the affinity corresponds to a Ki of 12.9 nM.
The compound `Cc1ccc(S(=O)(=O)c2nnn3c2nc(NCc2ccccc2C)c2ccccc23)cc1C` [PSTQ Analog, 3{9,13}] had an IC50 of 602 nM.
In turn, `O=S(=O)(c1ccccc1)c1nnn2c1nc(NCc1cccnc1)c1ccccc12` [PSTQ Analog, 3{1,23}] gave an IC50 of 983 nM.
